Experimental data taken from article PMC10761696, “Avapritinib-based SAR studies unveil a binding pocket in KIT and PDGFRA” (Nature Communications, 2024).
Several values for one entry are separate records, joined by “and”; a condition that tells them apart may be missing. Equal entries are not always repeated. Where two headings read alike, the source gives them in different places.

Assays:
PDGFRA-D842V = molecular target: T1, PDGFRA-D842V (Homo sapiens, UniProt P16234, D842V); experiment: Activity-based HTRF KinEASE assay, PDGFRA-D842V; type: biochemical
T1 construct: purchased Invitrogen PV4203 (lot #2343231B)

KIT-D816H = KIT-D816H (Homo sapiens, UniProt P10721, D816H); experiment: Activity-based HTRF KinEASE assay, KIT-D816H; type: biochemical
ZR-75-1 = experiment: CellTiter-Glo (CTG) EC50, ZR-75-1 breast cancer control cell line; type: cell-based, human; settings: Homo sapiens
Protocol: (§1) Cell line authenticity was confirmed by STR analysis at Eurofins Genomics. All cell lines were tested regularly for mycoplasma contamination using the Mycoplasmacheck Service at Eurofins Genomics. […] Following incubation for 24 h in a humidified atmosphere at 37 °C and 5% CO2, cells were treated with inhibitors in serial dilutions ranging from 30 µM down to 0.1 nM using an Echo650 acoustic liquid handler (Beckman Coulter). Cell viability was analyzed on day 5 using the CellTiter-Glo® assay (Promega) using 500 ms integration time. The obtained data were normalized to the plate positive control (30 µM staurosporine) and negative control (DMSO) and subsequently analyzed and fitted with the Quattro Software Suite (Quattro Research) using a four-parameter logistic model. As quality control, the Z’-factor was calculated from 16 positive and negative control values. Only assay results showing a Z’-factor ≥0.5 were used for further analysis. All experimental points were measured in duplicates for each plate and were independently replicated in at least three plates.

MDA-MB-175VII = experiment: CellTiter-Glo (CTG) EC50, MDA-MB-175VII breast cancer control cell line; type: cell-based, human; settings: Homo sapiens, MDA-MB-175-VII
Protocol: as §1

GIST-T1 = experiment: CellTiter-Glo (CTG) GR50, GIST-T1; settings: Homo sapiens
T1-T670I = experiment: CellTiter-Glo (CTG) GR50, T1-T670I; settings: Homo sapiens
T1-V654A = experiment: CellTiter-Glo (CTG) GR50, T1-V654A; settings: Homo sapiens
T1-a-5258 = experiment: CellTiter-Glo (CTG) GR50, T1-a-5258; settings: Homo sapiens
SK-LMS-1 = experiment: CellTiter-Glo (CTG) GR50, SK-LMS-1 control cell line; settings: for CTG GR50 SK-LMS-1, single determinations: raw data of Supp. Tab. 2, independent experiments, unit from Supp. Tab. 2; for CTG GR50 SK-LMS-1: mean ± s.d., n = 3, control cell line
GIST-48B = experiment: CellTiter-Glo (CTG) GR50, GIST-48B control cell line (off-target toxicity); settings: ratio of GR50 values; for GIST-48B/D842V: source data sheet
[1] = MDCKII-MDR1 permeability assay; settings: dog; for Papp B→A at 2 h, 10 µM: MDCK-MDR1
MDR1 = experiment: MDCKII-MDR1 permeability assay; settings: dog; for efflux ratio at 2 h, 10 µM: MDCK-MDR1; for recovery at 2 h, 10 µM: MDCKII-MDR1, assay conc. 10
[2] = mean ± s.d., n ≥ 3, ATP at KM (14 µM), read-out: HTRF IC50 PDGFRA-D842V
[3] = raw data of Table 1, independent experiments 1-3, unit from Table 1, read-out: HTRF IC50 PDGFRA-D842V, single determinations
[4] = mean ± s.d., n ≥ 3, ATP at KM (12 µM), read-out: HTRF IC50 KIT-D816H
[5] = raw data of Table 1, independent experiments, unit from Table 1, read-out: HTRF IC50 KIT-D816H, single determinations
[6] = ZR-75-1, mean ± s.d., n = 3, control cell line, read-out: CTG EC50 ZR-75-1
[7] = ZR-75-1, raw data of Supp. Tab. 2, independent experiments, unit from Supp. Tab. 2, read-out: CTG EC50 ZR-75-1, single determinations
[8] = read-out: CTG EC50 MDA-MB-175VII, mean ± s.d., n = 3, control cell line
[9] = read-out: CTG EC50 MDA-MB-175VII, single determinations, raw data of Supp. Tab. 2, independent experiments, unit from Supp. Tab. 2
[10] = GISTT1, read-out: CTG GR50 GIST-T1, single determinations, raw data of Table 1, independent experiments, unit from Table 1
[11] = GISTT1, read-out: KIT CTG GR50 GIST-T1, mean ± s.d., n ≥ 3, GR50 half-maximal growth inhibition rate
[12] = read-out: CTG GR50 T1-T670I, single determinations, raw data of Supp. Tab. 1, independent experiments, unit from Supp. Tab. 1
[13] = read-out: KIT CTG GR50 T1-T670I, mean ± s.d., n ≥ 3
[14] = read-out: CTG GR50 T1-V654A, single determinations, raw data of Supp. Tab. 1, independent experiments, unit from Supp. Tab. 1
[15] = read-out: KIT CTG GR50 T1-V654A, mean ± s.d., n ≥ 3 (* n = 2 for ava)
[16] = read-out: CTG GR50 T1-a-5258, single determinations, raw data of Supp. Tab. 1, independent experiments, unit from Supp. Tab. 1
[17] = read-out: PDGFRA CTG GR50 T1-a-5258, mean ± s.d., n ≥ 3, triple mutant D842V, G652E, V658A
[18] = MDCK-MDR1, MDCKII-MDR1 (Papp A→B), at 10 µM, 2 h, 37 °C, unit inferred

Sequence of KIT-D816H (P10721 26-976 D816H): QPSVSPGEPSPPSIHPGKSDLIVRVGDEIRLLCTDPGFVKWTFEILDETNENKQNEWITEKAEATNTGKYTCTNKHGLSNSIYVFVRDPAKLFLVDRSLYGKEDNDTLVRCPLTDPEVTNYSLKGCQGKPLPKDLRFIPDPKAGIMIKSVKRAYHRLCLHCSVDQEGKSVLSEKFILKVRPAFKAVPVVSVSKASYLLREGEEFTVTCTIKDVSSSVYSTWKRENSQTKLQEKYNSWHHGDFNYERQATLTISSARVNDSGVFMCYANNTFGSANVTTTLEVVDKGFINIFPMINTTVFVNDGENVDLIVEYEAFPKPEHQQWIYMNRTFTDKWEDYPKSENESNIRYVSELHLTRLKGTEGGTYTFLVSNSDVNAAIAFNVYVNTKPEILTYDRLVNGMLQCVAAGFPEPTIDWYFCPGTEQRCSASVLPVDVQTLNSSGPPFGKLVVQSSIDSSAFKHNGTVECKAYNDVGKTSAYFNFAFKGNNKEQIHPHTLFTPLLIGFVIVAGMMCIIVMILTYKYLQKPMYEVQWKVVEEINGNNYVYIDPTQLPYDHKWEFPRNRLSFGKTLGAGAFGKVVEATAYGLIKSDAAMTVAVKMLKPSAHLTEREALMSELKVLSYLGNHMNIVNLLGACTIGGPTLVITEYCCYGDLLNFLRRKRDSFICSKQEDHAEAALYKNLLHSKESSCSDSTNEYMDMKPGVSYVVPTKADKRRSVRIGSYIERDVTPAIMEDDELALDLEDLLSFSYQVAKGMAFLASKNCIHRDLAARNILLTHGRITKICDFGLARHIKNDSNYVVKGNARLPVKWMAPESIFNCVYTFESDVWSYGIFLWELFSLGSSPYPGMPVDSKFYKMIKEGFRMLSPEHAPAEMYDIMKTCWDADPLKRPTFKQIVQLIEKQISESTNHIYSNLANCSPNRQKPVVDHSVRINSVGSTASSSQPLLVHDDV
T1 sequence (P16234 24-1089 D842V): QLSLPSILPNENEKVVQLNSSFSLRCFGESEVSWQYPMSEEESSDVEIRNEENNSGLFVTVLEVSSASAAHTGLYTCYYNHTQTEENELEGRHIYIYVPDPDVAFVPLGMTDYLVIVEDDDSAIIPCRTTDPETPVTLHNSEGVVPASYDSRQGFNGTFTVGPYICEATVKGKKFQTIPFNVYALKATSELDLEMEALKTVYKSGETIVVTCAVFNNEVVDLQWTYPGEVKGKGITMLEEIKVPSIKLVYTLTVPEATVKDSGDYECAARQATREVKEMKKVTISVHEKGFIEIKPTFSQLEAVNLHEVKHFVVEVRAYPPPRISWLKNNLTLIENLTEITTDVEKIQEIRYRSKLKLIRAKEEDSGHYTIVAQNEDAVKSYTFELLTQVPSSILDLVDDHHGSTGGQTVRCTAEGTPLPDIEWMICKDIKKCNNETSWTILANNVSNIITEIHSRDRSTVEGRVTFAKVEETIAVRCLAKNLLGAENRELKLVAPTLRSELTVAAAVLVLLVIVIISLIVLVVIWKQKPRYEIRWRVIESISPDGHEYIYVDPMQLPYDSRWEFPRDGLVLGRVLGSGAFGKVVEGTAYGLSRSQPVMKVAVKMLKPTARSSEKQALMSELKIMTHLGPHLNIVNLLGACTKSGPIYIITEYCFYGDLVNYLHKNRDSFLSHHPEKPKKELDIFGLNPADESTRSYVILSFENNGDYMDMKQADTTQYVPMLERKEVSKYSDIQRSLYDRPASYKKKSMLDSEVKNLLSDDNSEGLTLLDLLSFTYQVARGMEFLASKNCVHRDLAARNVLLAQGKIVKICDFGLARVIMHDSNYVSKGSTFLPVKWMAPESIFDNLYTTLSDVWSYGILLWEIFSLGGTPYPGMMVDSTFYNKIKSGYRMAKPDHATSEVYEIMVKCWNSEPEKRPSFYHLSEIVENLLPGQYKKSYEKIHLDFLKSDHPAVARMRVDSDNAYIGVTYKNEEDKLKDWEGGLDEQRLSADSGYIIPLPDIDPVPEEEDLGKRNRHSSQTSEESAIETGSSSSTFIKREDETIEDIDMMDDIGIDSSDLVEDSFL

| SMILES | IC50 (PDGFRA-D842V; [2]) [nM] | IC50 (PDGFRA-D842V; [3]) | IC50 (KIT-D816H; [4]) [nM] | IC50 (KIT-D816H; [5]) | EC50 (ZR-75-1; [6]) [nM] | EC50 (ZR-75-1; [7]) [nM] | EC50 (MDA-MB-175VII; [8]) [nM] | EC50 (MDA-MB-175VII; [9]) [nM] | GI50 (GIST-T1; [10]) [nM] | GI50 (GIST-T1; [11]) [nM] | GI50 (T1-T670I; [12]) [nM] | GI50 (T1-T670I; [13]) [nM] | GI50 (T1-V654A; [14]) [nM] | GI50 (T1-V654A; [15]) [nM] | GI50 (T1-a-5258; [16]) [nM] | GI50 (T1-a-5258; [17]) [nM] | CTG GR50 SK-LMS-1, single determinations (SK-LMS-1) | ratio GIST-48B/ T1-a-D842V (GIST-48B) | GIST-48B/D842V (GIST-48B) | CTG GR50 SK-LMS-1 (SK-LMS-1) | also measured |
| --- | --- | --- | --- | --- | --- | --- | --- | --- | --- | --- | --- | --- | --- | --- | --- | --- | --- | --- | --- | --- | --- |
| Cn1cc(-c2cc3c(N4CC5(CN(c6ncc(Cc7ccccc7)cn6)C5)C4)ncnn3c2)cn1 [Compound 6] | 7350 ± 884 | 6110 nM and 7810 nM and 8130 nM | 2160 ± 167 | 2280 nM and 2040 nM | ≥ 10000 | ≥ 10000 | ≥ 10000 | ≥ 10000 | ≥ 10000 | ≥ 10000 | ≥ 10000 | ≥ 10000 | ≥ 10000 | ≥ 10000 | 8790 | 9530 ± 650 | ≥10 µM | 1 | 1 |  |  |
| CN(C)[C@@](C)(c1ccc(F)cc1)c1cnc(N2CCN(c3ncnn4cc(-c5cnn(C)c5)cc34)CC2)nc1 [Compound 8] | 0.4 ± 0.1 | 0.28 nM and 0.38 nM and 0.56 nM | 2.3 ± 1.7 | 3.5 nM and 2.4 nM and 1.1 nM | ≥ 10000 | ≥ 10000 | ≥ 10000 | ≥ 10000 | 350 | 254 ± 74 | 2770 | 2560 ± 258 | 999 | 1170 ± 264 | 1400 | 1660 ± 250 | 5.894 µM and 10 µM | 33 | 33 | 8.631 ± 2.371 µM and 8.631 µM | fold decrease in potency at the biochemical level compared to avapritinib (PDGFRA-D842V; HTRF IC50, PDGFRA-D842V and KIT-D816H): 3–5 fold |

Continued, in another order:

| IC50 (PDGFRA-D842V; [2]) [nM] | IC50 (PDGFRA-D842V; [3]) | IC50 (KIT-D816H; [4]) [nM] | IC50 (KIT-D816H; [5]) | EC50 (ZR-75-1; [6]) [nM] | EC50 (ZR-75-1; [7]) [nM] | EC50 (MDA-MB-175VII; [8]) [nM] | EC50 (MDA-MB-175VII; [9]) [nM] | SMILES | GI50 (GIST-T1; [10]) [nM] | GI50 (GIST-T1; [11]) [nM] | GI50 (T1-T670I; [12]) [nM] | GI50 (T1-T670I; [13]) [nM] | GI50 (T1-V654A; [14]) [nM] | GI50 (T1-V654A; [15]) [nM] | GI50 (T1-a-5258; [16]) [nM] | GI50 (T1-a-5258; [17]) [nM] | CTG GR50 SK-LMS-1, single determinations (SK-LMS-1) | ratio GIST-48B/ T1-a-D842V (GIST-48B) | GIST-48B/D842V (GIST-48B) | CTG GR50 SK-LMS-1 (SK-LMS-1) | also measured |
| --- | --- | --- | --- | --- | --- | --- | --- | --- | --- | --- | --- | --- | --- | --- | --- | --- | --- | --- | --- | --- | --- |
| < 0.1 | < 0.1 nM | 0.4 ± 0.2 | 0.26 nM and 0.54 nM and 0.27 nM | ≥ 10000 | ≥ 10000 | ≥ 10000 | ≥ 10000 | CCN[C@@](C)(c1ccc(F)cc1)c1cnc(N2CCN(c3ncnn4cc(-c5cnn(C)c5)cc34)CC2)nc1 [Compound 9] | 109 | 92 ± 16 | 1330 | 1500 ± 223 | 532 | 575 ± 159 | 1160 | 1330 ± 220 | 7.123 µM and 10 µM | 155 | 155 | 9.041 ± 1.661 µM and 9.041 µM |  |
| < 0.1 | < 0.1 nM | 0.5 ± 0.1 | 0.38 nM and 0.43 nM and 0.65 nM | ≥ 10000 | ≥ 10000 | ≥ 10000 | ≥ 10000 | CC(=O)N[C@@](C)(c1ccc(F)cc1)c1cnc(N2CCN(c3ncnn4cc(-c5cnn(C)c5)cc34)CC2)nc1 [Compound 10] | 44 | 39 ± 6 | 376 | 386 ± 39 | 268 | 293 ± 83 | 1570 | 2060 ± 430 | 6.361 µM and 10 µM | 186 | 186 | 8.787 ± 2.101 µM and 8.787 µM | Papp B→A at 2 h, 10 µM [1]: 5.43 ×10⁻⁶ cm/s; Papp A→B at 2 h, 10 µM [1, 18]: 11.3 ×10⁻⁶ cm/s; Papp A→B at 2 h, 10 µM ([1]; MDCK-MDR1, Papp A->B, MDCKII-MDR1, assay conc. 10, apical to basolateral): 11.3 ×10⁻⁶ cm/s; efflux ratio at 2 h, 10 µM (MDR1): 0.48; recovery at 2 h, 10 µM (MDR1; MDCK-MDR1, Recovery A->B): 44.1%; recovery at 2 h, 10 µM (MDR1; MDCK-MDR1, Recovery B->A): 48.4% |
| < 0.1 | < 0.1 nM | 0.5 ± 0.2 | 0.7 nM and 0.54 nM and 0.37 nM | ≥ 10000 | ≥ 10000 | ≥ 10000 | ≥ 10000 | C=CC(=O)N[C@@](C)(c1ccc(F)cc1)c1cnc(N2CCN(c3ncnn4cc(-c5cnn(C)c5)cc34)CC2)nc1 [Compound 11] | 46 | 39 ± 7 | 402 | 413 ± 44 | 302 | 347 ± 108 | 2970 | 3380 ± 360 |  | 144 | 144 | 6.459 ± 3.067 µM and 6.459 µM | Papp B→A at 2 h, 10 µM [1]: 1.99 ×10⁻⁶ cm/s; Papp A→B at 2 h, 10 µM [1, 18]: 10.1 ×10⁻⁶ cm/s; efflux ratio at 2 h, 10 µM (MDR1): 0.2; recovery at 2 h, 10 µM (MDR1; MDCK-MDR1, Recovery A->B): 34.2%; recovery at 2 h, 10 µM (MDR1; MDCK-MDR1, Recovery B->A): 38.9% |
